# Columns and labels:
# NDUA9 (Tt-CI subunit) = molecular target: T1, NDUA9 (Tt-CI subunit) (Tetrahymena thermophila, UniProt I7MLH2); assay: cryo-EM structure; format: binding; conditions: printed only as NDP group (PDB ligand code)
# T1 construct: gene TTHERM_00557760
# T1 sequence (I7MLH2 27-362): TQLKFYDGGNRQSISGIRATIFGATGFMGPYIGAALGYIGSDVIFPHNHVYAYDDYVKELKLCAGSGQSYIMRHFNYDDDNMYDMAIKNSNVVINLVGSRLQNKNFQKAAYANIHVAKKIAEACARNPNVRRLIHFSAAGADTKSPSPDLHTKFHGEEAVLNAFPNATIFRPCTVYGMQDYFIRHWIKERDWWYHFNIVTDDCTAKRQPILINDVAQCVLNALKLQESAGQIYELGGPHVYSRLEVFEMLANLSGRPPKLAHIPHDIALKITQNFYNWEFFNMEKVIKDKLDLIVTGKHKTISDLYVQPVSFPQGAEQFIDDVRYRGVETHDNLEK
# Excerpt: cryo-EM structure on NDUA9 (Tt-CI subunit) | NDP group of NDUA9 and the interfacial heme […]1
# [1] = molecular target: T2, Tt-CII (SDHA/SDHB hydrophilic head) (Tetrahymena thermophila, UniProt Q23DI3); assay: cryo-EM structure; format: binding
# T2 construct: gene TTHERM_00047080
# [2] = molecular target: T2, Tt-CII (SDHA/SDHB hydrophilic head); assay: cyt c reduction/oxidation, […] nm; format: biochemical; conditions: 5 mM malonate; 5 mM succinate, 50 uM decylubiquinone, 100 uM Tt-cyt c, 10 nM megacomplex, pH 7.4, 0.1% digitonin, room temperature
# T2 sequence (Q23DI3 1-636): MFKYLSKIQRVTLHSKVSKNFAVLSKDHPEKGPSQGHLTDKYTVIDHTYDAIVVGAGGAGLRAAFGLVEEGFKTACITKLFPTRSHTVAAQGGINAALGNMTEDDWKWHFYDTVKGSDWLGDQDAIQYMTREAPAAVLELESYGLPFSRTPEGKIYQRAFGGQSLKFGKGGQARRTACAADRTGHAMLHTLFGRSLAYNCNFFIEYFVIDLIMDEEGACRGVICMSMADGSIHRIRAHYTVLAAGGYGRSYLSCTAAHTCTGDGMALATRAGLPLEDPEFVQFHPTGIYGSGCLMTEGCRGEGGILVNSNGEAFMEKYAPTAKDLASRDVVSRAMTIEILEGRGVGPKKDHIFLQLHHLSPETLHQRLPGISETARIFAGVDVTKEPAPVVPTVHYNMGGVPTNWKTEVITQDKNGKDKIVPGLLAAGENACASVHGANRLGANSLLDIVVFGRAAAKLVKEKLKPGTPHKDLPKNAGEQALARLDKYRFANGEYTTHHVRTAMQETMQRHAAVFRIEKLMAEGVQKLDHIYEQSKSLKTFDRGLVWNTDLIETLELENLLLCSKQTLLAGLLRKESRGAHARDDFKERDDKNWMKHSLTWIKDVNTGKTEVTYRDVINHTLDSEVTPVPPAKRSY
# T2 sequence (I7M403 21-312 partner): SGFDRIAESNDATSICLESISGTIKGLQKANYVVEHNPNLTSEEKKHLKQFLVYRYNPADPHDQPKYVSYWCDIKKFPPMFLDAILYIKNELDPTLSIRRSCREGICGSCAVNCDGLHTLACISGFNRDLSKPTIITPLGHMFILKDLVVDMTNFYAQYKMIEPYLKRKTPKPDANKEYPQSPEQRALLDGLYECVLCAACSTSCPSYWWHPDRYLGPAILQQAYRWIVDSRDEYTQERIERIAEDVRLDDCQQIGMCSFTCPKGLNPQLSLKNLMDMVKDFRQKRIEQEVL
compound,measurement,setting,value
NC(=O)C1=CN([C@@H]2O[C@H](COP(=O)(O)OP(=O)(O)OC[C@H]3O[C@@H](n4cnc5c(N)ncnc54)[C@H](OP(=O)(O)O)[C@@H]3O)[C@@H](O)[C@H]2O)C=CC1 [NDP],cryo-EM structure,NDUA9 (Tt-CI subunit),NDP group of NDUA9 and the interfacial heme c SDHTT1
Cc1cc2nc3c(=O)[nH]c(=O)nc-3n(C[C@H](O)[C@H](O)[C@H](O)COP(=O)(O)OP(=O)(O)OC[C@H]3O[C@@H](n4cnc5c(N)ncnc54)[C@H](O)[C@@H]3O)c2cc1C [FAD],cryo-EM structure,[1],highly conserved to known CII structures with the FAD and three iron-sulfur clusters in place
O=C(O)CC(=O)O [malonate],"cyt c reduction/oxidation, 550 nm",[2],NADH and succinate-dependent activities could be inhibited by CI inhibitor rotenone and CII inhibitor malonate
